Measured values as given in patent EP0112633A2, “Novel 5-thiaprostaglandin, process for production thereof, and pharmaceutical use thereof” (TEIJIN LIMITED, priority 1982, dated 1984).
≈ marks a conversion by molar mass, not a printed value. Read-outs that look alike come from different tables or passages of the source.

Assays:
L1210 leukemia cells = test: Inhibition of proliferation of L1210 leukemia cells (trypan blue count of surviving cells after 4 days); type: cell-based; conditions: RPMI medium with 10% FCS, 37°C, ratio of proliferation against 0.1% ethanol control
Protocol: Measurement of the action of inhibiting proliferation of […] leukemia cell:-
L1210 leukemia cells were added to an RPMI medium containing 10% FCS (fetal calf serum), and the concentration of the cells was adjusted to 1 × 10^5 cells/ml. […] Prior to use, the final concentration of the ethanol solution was adjusted to less than 0.1%, and it was added to the culture medium. The culture medium was then maintained at 37°C in a stationary condition for 4 days. After the cultivation, the number of surviving cells was measured by dyeing with trypan flue. As a control, 0.1% ethanol was used. A dose-reaction curve was plotted from the ratios of proliferation against the control, and IC50 was determined.

platelet aggregation = test: In vitro inhibition of ADP-induced platelet aggregation in platelet-rich plasma (aggregometer); type: cell-based, Japanese domestic white male rabbits
Protocol: in vitro inhibitory activity of platelet aggregation:-
The in vitro platelet aggregation imhibiting activity of the compounds of the invention were examined by using rabbits. Blood was withdrawn from the ear vein of Japanese domestic white male rabbits weighing 2.5 to 3.5 kg. A mixture of a 3.8% trisodium citrate solution and the blood in a ratio of 1:9 was centrifuged at a speed of 1000 rpm for 10 minutes. The upper layer was separated as platelet- rich plasma (PRP). The lower layer was further centrifuged at a speed of 28000 rpm for 10 minutes. The upper layer was separated as platelet-poor plasma (PPP). The number of platelets was adjusted to 6 x 10^5/µℓ to 7 x 10^5/µℓ by diluting the PRP with PPP. 25 microliters of the test compounds prepared as shown below was added in an amount of 25 to 250 microliters of PRP after the adjustment, and the mixture was pre-incubated at 37°C for 2 minutes, and then 10 µM (final) of ADP was added. By using an aggregometer, changes in transmission were recorded.
The drug was dissolved in ethanol to a concentration of 10 mg/mt, and successively diluted with phosphate buffer (pH 7.4) prior to use.
The rate of inhibition of platelet aggregation was determined from the following equation. [formula] • T: the transmittance of the system containing the phosphate buffer, • T : the transmittance of the system to which the test drug was added.
The minumum concentration of the drug which inhibited more than 50% of platelet aggregation was shown as an IC50 value.

ethanol ulcer = test: Ethanol ulcer test (inhibitory activity on ethanol ulcer); type: in vivo, SD-strain rats; conditions: rats; for Ulcer index (mm): 75% ethanol 30 min later, stomach examined 1 h later; for ED50: p.o., ethanol ulcer
Protocol: Measurement of inhibitry activity on ethanol ulcer:- An ethanol ulcer test was carried out by the following processure. SD-strain rats (body weight 200 to 220 g; 7 weeks old) were fasted for 24 hours, and a solution of each of the test compounds in physiological saline buffered with phosphate buffer at pH 7.5 was orally administered. Thirty minutes after the administration, 75% ethanol was orally administered in a dose of […]. One hour later, the abdomen was incised to isolate the stomach. […] The total of these lengths was defined as the ulcer index. A control group was given physiological saline buffered with phosphate buffer (pH 7.5) and 75% ethanol.

blood pressure = test: Hypotensive activity by intravenous injection under anesthesia; type: in vivo, Male wister rats; conditions: anesthetized rats, i.v.; dosage which caused a 20% lowering of the mean blood pressure
Protocol: Measurement of the hypotensive activity:-
The actions of the 5-thiaprostaglandin of the invention on the blood pressure was examined by intravenous injection under anesthesia.
Male wister rats weighing about 250 g were used. Urethane (500 mg/kg) and a-chloralose (100 mg/kg) were intraperitoneally administered to the rats. The rats were anesthetized and fixed in place.
Each of the test compounds was dissolved in a small amount of ethanol and diluted with physiological saline to adjust the final ethanol concentration to not more than 5%. The solution was intravenously injected into the rats through a catheter inserted into the femoral vein.
The blood pressure of the rats was measured by a pressure transducer through a catheter inserted into the carotid artery of the rats.
The action of the test compound on the blood pressure was expressed as the dosage (ED20, u/kg) of the test compound which caused a 20% lowering of the mean blood pressure before administration of the compound.

How did the IC50 (L1210 leukemia cells) turn out when 5-thiaprostaglandin E1 methyl ester was run?
The IC50 was 0.6 µg/mL.

For “17(S),20-dimethyl-5-thiaprostaglandin E1 methyl ester”, which IC50 (platelet aggregation; rabbit PRP, 10 µM (final) ADP, minimum concentration which inhibited more than 50% of platelet aggregation) is on record?
Its IC50 is 0.33 µg/mL.

And the “Ulcer inhibiting rate (%)” value (ethanol ulcer; p.o. 0.3 µg/kg)?
Its value is 46.8%.

And the “Ulcer index (mm)” value (ethanol ulcer; p.o. 0.3 µg/kg)?
Its value is 18.4 ±4.3 mm.

What about the “Ulcer inhibiting rate (%)” value (ethanol ulcer; p.o. 1 µg/kg) of the same compound?
The value was 97.7%.

And the “Ulcer index (mm)” value (ethanol ulcer; p.o. 1 µg/kg)?
The value was 0.8 ±0.6 mm.

And the “Ulcer inhibiting rate (%)” value (ethanol ulcer; p.o. 3 µg/kg)?
The value was 100%.

What about the “Ulcer index (mm)” value (ethanol ulcer; p.o. 3 µg/kg) of the same compound?
Its value is 0 mm.

What about the ED50 (ethanol ulcer) of the same compound?
Its ED50 is 0.35 µg/kg.

And the ED20 (blood pressure)?
The ED20 was 2.7 µg/kg.

For `CCCCCC(O)C=CC1C=CC(=O)C1=CCSCCCC(=O)OC` (centres unmarked) [12-epimer of (7E)-Δ^7-5-thiaprostaglandin A1 methyl ester], which IC50 (L1210 leukemia cells) is on record?
Its IC50 is 0.3 µg/mL.

For `CCCC[C@@H](C)C[C@H](O)/C=C/[C@H]1[C@H](O)CC(=O)[C@@H]1CCSCCCC(=O)OC` [17(R),20-dimethyl-5-thiaprostaglandin E1 methyl ester], which IC50 (platelet aggregation; Oryctolagus cuniculus, rabbit PRP, 10 µM (final) ADP, minimum concentration which inhibited more than 50% of platelet aggregation, read-out: IC50) is on record?
Its IC50 is 0.36 µg/mL (≈ 0.868 µM).

How did the IC50 (L1210 leukemia cells; Mus musculus, 96 h, read-out: IC50) turn out when `CCCCC[C@H](O)/C=C/[C@H]1C=CC(=O)/C1=C/CSCCCC(=O)OC` [(7E)-Δ^7-5-thiaprostaglandin A1 methyl ester] was run?
The IC50 was 0.2 µg/mL.

With `CCCCC[C@H](O)/C=C/[C@H]1[C@H](O)CC(=O)[C@@H]1CCCCCCC(=O)O` [Prostaglandin E1, reference compound] as the compound, how does the IC50 (platelet aggregation; Oryctolagus cuniculus, Platelet, in vitro, ADP 10 µM (printed "ADPlOpM"), read-out: inhibiting platelet aggregation activity (IC50)) read?
The IC50 was 0.03 µg/mL (≈ 0.0846 µM).

And the inhibition at 0.003 mg/kg (ethanol ulcer; Rattus norvegicus, po, p.o. 3 µg/kg, read-out: Ulcer inhibiting rate (%))?
The inhibition at 0.003 mg/kg was 50%.

And the inhibition at 0.01 mg/kg (ethanol ulcer; Rattus norvegicus, po, p.o. 10 µg/kg, read-out: Ulcer inhibiting rate (%))?
The inhibition at 0.01 mg/kg was 96.2%.

What about the ED50 (ethanol ulcer; Rattus norvegicus, po, read-out: ED50) of the same compound?
Its ED50 is 3 µg/kg.

And the “Ulcer index (mm)” value (ethanol ulcer; p.o. 3 µg/kg)?
The value was 17.1 ±5.5 mm.

And the “Ulcer index (mm)” value (ethanol ulcer; p.o. 10 µg/kg)?
The value was 1.3 ±0.8 mm.

“(7E)-Δ^7-5-thiaprostaglandin E1 methyl ester and its 15-epimer [A mixture of (7E)-Δ^7-5-thiaprostaglandin E1 methyl ester of its 15-epimer]” was tested. Which IC50 (L1210 leukemia cells) did it give?
Its IC50 is 0.4 µg/mL.
